Measured values taken from ChEMBL document CHEMBL6114992, “Design, synthesis, biological evaluation, and mechanism of action of new pyrazines as anticancer agents in vitro and in vivo” (Bioorg Med Chem, 2025).
Active and inactive are the calls of the source. The calls are words filed in the database; no cut-off is given here.

What was measured:
U-937 [1] = assay: Downregulation of TAZ expression in human U-937 cells incubated for 48 hrs by Western blot analysis; format: functional, cell-based; conditions: dose 0.5-2.5 µM
U-937 [2] = assay: Downregulation of XIAP expression in human U-937 cells incubated for 48 hrs by Western blot analysis; format: functional, cell-based
U-937 [3] = assay: Downregulation of Bcl-2 expression in human U-937 cells incubated for 48 hrs by Western blot analysis; format: functional, cell-based
SK-OV-3 = assay: Antitumor activity against human SK-OV-3 cells xenografted in nude mouse assessed as reduction cell proliferation at 30 to 60 mg/kg, ip qd treated for 14 days by Ki67 staining based IHC analysis; format: functional, organism-based; conditions: dose 30-60 mg/kg, time 14.0 day
U-937 [4] = assay: Induction of apoptosis in human U-937 cells assessed as early apoptotic cells at 1 uM incubated for 48 hrs by Annexin V-FITC/PI staining based flow cytometry (reference value: 2.72 %); format: functional
THP-1 = assay: Downregulation of Bcl-2 expression in human THP-1 cells incubated for 48 hrs by Western blot analysis; format: functional, cell-based; conditions: dose 0.5-2.5 µM
U-937 [5] = assay: Induction of apoptosis in human U-937 cells assessed as change in mitochondrial membrane potential at 1 uM incubated for 48 hrs by JC-1 staining based flow cytometry (reference value: 2.20 %); format: functional
U-937 [6] = assay: Induction of apoptosis in human U-937 cells assessed as necrotic cells at 2.5 uM incubated for 48 hrs by Annexin V-FITC/PI staining based flow cytometry (reference value: 2.03 %); format: functional
U-937 [7] = assay: Induction of apoptosis in human U-937 cells assessed as late apoptotic cells at 1 uM incubated for 48 hrs by Annexin V-FITC/PI staining based flow cytometry (reference value: 1.96 %); format: functional

With `Cc1nccnc1C(=O)/C=C/c1cccc(C#N)c1` the Activity (U-937 [1]) was “Dose-dependent-effect”, the Activity (U-937 [2]) was “Dose-dependent-effect” and the Activity (U-937 [3]) was “Dose-dependent-effect”. For the same compound, the Activity (SK-OV-3) was “Active”, the Activity (U-937 [4]) was 10.98% and the Activity (THP-1) was “Dose-dependent-effect”. For the same compound, the Activity (U-937 [5]) was 3.68%, the Activity (U-937 [6]) was 3.09% and the Activity (U-937 [7]) was 9.69%.
